Paper PMC7101356, “Cross-site and cross-platform variability of automated patch clamp assessments of drug effects on human cardiac currents in recombinant cells” (Scientific Reports, 2020)
pIC50: −log10 of the molar value. Read-outs that look alike come from different tables or passages of the source.

Assays:
peak hNav1.5 = target: T1, peak hNav1.5 (Homo sapiens, UniProt Q14524); assay: Automated patch clamp, peak hNav1.5 current block; assay type: cell-based; details: for IC50: read-out: log IC50, peak hNav1.5 inhibition (converted)
T1 construct: expressed in transfected cells; host or cells: HEK293 or CHO, depending on site
Procedure: Peak current was measured during the depolarizing step to −15 mV. Leak current was measured after applying a saturating concentration of a blocker such as lidocaine (2 mM) at the end of each experiment to completely block hNav1.5 current.
(§1) Concentration-response relationships for each test article were independently investigated, i.e., each cell received only one test article, typically evaluating multiple concentrations in a cumulative fashion (lowest to highest concentrations). However, some platforms tested only one concentration per well. Each concentration response was based on a minimum of four concentrations, with a minimum of three wells used for each concentration. In cases of high variability, more cells per concentration were recorded. Prior to drug addition, cells received an addition of vehicle to measure non-test article-related effects such as addition artifacts. At the end of the experiment, a supramaximal concentration of a known inhibitory reference compound was applied to assess leak current and appropriate responsiveness of the test system.
(§2) The steady state current at each concentration was used to determine the concentration-response relationships. Mean concentration-response data were fitted to a standard sigmoidal four-parameter logistic equation (GraphPad Prism 7; GraphPad Inc., La Jolla, CA) of the form: Y=Bottom+(Top−Bottom)/(1+10^∧(LogIC50−X)∗HillSlope) where Y is the current inhibition (in % of pre-drug control), X is the logarithm of drug concentration, and IC50 is the drug concentration producing half-maximal current inhibition. Curve fitting was performed using the following constraints: Top = 100%, Bottom = 0%, Hill Slope <2. No curve fitting was performed in cases with an obvious lack of a concentration-dependent current inhibition and/or small effect size (approximately ≤20%).

late hNav1.5 = target: T2, late hNav1.5 (Homo sapiens, UniProt Q14524); assay: Automated patch clamp, late hNav1.5 current block (ATX-II activated); assay type: cell-based
T2 construct: expressed in transfected cells; host or cells: HEK293 or CHO, depending on site
Procedure: However, all external solutions contained 30 nM ATX-II in order to activate late current. Late current was measured at its maximum during the repolarizing ramp.
as §1, §2

[1] = based on CiPA evaluations; cited from earlier work
hCav1.2 = hCav1.2 (Homo sapiens, UniProt Q13936); assay: Automated patch clamp, hCav1.2 current block
hERG = hERG (Homo sapiens, UniProt Q12809); assay: Automated patch clamp, hERG current block (consensus step-ramp protocol); details: human, hERG K+ current inhibition, Mean, 1.00E-08 mol/L
[2] = site_platform s06_p4, 1.00E-08 mol/L
[3] = site_platform s06_p4, 3.00E-07 mol/L
[4] = site_platform s07_p6, 1.00E-08 mol/L
[5] = site_platform s07_p6, 3.00E-07 mol/L
[6] = site_platform s13_p2, 1.00E-08 mol/L
[7] = site_platform s13_p2, 3.00E-07 mol/L
[8] = site_platform s14_p1, 1.00E-08 mol/L
[9] = site_platform s14_p1, 3.00E-07 mol/L

Chain of hERG (Q12809 whole entry): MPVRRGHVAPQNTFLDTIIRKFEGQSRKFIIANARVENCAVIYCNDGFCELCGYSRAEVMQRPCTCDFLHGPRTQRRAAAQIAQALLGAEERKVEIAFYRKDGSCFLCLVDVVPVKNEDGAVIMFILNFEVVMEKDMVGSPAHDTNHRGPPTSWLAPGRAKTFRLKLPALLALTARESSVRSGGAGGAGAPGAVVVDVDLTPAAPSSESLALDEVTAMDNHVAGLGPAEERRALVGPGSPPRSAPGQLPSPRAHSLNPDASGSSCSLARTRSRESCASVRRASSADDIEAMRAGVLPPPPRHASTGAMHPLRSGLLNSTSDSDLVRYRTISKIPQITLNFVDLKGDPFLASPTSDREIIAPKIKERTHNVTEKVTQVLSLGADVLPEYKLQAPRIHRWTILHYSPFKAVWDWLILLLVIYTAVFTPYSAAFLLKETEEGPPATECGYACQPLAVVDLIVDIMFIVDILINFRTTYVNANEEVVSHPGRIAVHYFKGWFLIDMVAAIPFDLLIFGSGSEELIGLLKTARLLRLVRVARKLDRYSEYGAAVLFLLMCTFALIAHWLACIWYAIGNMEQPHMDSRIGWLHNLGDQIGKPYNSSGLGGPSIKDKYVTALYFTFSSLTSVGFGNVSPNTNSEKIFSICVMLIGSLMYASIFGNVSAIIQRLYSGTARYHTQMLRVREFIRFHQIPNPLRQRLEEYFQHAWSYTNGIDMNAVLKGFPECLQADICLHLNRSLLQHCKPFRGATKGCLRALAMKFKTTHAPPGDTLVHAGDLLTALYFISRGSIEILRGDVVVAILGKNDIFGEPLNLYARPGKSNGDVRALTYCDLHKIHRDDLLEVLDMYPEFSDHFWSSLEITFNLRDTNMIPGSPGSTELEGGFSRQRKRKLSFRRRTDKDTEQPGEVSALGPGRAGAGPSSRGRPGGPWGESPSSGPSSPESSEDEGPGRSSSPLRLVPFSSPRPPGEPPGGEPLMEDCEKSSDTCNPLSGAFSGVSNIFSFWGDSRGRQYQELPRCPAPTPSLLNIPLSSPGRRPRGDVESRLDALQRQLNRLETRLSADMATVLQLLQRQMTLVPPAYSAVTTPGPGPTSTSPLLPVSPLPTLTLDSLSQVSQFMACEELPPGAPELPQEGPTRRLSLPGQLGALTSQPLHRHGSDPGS
Chain of hCav1.2 (Q13936 whole entry): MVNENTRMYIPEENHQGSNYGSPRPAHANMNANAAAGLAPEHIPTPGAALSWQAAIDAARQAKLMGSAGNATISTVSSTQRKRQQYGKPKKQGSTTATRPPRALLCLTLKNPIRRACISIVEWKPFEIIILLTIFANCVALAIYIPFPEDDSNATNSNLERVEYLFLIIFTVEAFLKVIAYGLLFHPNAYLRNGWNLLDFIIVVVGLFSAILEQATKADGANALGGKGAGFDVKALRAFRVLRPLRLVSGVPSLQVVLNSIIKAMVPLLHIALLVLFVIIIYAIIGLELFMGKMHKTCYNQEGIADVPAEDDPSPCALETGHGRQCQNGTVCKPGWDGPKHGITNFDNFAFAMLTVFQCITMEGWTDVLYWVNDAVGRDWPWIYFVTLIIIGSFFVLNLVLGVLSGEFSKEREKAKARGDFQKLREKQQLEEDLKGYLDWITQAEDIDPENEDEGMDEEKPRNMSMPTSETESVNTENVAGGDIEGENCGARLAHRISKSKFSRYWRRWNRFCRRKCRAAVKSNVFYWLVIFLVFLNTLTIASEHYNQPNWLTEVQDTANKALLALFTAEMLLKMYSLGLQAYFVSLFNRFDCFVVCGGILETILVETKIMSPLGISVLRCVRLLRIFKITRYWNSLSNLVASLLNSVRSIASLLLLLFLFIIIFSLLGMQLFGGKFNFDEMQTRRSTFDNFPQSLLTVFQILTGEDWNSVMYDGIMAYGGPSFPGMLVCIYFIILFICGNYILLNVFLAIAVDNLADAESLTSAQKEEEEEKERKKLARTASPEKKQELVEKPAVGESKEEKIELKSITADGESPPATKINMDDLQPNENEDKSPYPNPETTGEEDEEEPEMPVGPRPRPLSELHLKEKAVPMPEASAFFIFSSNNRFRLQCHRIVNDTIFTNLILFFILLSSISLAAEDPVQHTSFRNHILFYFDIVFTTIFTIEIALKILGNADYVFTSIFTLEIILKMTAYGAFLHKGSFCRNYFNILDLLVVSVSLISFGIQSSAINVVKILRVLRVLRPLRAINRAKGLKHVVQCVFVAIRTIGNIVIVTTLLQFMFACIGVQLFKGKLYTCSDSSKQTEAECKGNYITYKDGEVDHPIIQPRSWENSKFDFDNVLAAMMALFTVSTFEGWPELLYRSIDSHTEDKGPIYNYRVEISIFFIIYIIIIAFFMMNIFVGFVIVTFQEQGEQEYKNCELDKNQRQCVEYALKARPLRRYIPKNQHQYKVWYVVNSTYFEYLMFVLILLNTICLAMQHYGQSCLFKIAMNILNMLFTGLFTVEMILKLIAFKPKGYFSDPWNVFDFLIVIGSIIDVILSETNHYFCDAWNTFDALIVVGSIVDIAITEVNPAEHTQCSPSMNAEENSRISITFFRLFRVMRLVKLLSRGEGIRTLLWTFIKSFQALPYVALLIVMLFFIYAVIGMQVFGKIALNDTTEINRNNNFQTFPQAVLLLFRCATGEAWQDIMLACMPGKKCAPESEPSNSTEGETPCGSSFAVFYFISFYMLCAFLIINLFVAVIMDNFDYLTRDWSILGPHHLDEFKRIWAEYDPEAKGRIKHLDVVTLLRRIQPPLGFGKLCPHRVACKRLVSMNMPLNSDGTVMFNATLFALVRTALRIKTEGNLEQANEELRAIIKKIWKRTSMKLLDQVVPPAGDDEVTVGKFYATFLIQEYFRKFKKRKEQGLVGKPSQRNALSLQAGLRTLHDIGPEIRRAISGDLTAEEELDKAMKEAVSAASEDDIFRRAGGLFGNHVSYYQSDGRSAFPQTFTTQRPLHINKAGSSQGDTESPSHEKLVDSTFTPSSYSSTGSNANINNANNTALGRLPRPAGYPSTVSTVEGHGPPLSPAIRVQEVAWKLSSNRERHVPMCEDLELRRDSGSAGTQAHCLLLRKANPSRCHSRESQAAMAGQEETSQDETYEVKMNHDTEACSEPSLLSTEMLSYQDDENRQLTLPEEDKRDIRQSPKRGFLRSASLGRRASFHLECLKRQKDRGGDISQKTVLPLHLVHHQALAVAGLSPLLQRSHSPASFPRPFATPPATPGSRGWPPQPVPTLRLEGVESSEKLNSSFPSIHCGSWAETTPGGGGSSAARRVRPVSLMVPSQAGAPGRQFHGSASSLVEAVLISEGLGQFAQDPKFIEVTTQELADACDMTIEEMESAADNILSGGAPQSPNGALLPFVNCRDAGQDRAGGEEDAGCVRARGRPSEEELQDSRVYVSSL
Chain of hCav1.2 (Q08289 whole entry partner): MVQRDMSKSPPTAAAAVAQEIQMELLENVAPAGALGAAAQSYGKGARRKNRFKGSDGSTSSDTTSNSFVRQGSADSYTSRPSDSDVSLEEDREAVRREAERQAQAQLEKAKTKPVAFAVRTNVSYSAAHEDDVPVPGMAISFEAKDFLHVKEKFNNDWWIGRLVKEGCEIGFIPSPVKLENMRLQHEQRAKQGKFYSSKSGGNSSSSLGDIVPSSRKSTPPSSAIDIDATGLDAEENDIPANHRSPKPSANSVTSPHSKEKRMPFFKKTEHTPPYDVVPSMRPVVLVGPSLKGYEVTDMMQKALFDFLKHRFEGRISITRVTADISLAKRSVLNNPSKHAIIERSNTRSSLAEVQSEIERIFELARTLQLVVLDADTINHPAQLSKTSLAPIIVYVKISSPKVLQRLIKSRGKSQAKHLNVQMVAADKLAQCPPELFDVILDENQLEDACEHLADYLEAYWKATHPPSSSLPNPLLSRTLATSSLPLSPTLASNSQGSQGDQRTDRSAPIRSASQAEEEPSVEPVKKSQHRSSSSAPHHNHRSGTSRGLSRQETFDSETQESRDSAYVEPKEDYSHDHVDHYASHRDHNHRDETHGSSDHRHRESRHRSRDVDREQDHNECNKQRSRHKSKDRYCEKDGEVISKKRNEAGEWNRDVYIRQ
Chain of hCav1.2 (P54289 25-956 partner limits assumed): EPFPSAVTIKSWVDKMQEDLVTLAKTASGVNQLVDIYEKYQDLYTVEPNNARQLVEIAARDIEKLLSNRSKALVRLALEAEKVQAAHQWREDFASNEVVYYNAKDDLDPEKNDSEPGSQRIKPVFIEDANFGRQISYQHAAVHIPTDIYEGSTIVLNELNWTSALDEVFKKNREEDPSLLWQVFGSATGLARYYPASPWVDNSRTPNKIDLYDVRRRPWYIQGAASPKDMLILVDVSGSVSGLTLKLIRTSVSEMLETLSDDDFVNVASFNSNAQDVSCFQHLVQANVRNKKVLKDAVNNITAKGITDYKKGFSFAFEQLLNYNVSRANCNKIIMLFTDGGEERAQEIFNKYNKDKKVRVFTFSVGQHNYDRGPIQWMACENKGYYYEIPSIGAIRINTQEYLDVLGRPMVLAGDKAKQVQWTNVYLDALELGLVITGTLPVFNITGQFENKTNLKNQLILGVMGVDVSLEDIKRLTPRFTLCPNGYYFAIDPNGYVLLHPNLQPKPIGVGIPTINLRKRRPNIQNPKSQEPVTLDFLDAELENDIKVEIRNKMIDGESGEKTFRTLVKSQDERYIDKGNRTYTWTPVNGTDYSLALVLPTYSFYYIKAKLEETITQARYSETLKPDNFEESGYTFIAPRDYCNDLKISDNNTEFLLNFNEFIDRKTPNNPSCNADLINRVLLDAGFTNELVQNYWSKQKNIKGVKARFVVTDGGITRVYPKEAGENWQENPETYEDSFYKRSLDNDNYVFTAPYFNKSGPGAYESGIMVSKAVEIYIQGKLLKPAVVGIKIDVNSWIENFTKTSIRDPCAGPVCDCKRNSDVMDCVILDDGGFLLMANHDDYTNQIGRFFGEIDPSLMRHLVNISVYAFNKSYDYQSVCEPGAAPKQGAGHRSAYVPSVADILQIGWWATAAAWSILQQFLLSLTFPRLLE
Chain of hCav1.2 (P54289 957-1103 partner limits assumed): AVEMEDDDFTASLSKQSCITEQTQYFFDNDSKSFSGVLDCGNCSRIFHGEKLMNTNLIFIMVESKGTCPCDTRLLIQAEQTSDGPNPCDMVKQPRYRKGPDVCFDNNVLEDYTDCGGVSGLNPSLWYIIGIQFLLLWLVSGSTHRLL

CC(C)COCC(CN(Cc1ccccc1)c1ccccc1)N1CCCC1 (stereo not drawn) [bep, bepridil]
pIC50 (peak hNav1.5): 5.61
log IC50, peak hNav1.5 Na+ current inhibition (peak hNav1.5; site_platform s01_p1): no inh.
Peak hNav1.5 Na+ current inhibition, Mean (peak hNav1.5; site_platform s01_p1, 1.00E-08 mol/L): 27.2%
Peak hNav1.5 Na+ current inhibition, Mean (peak hNav1.5; site_platform s01_p1, 3.00E-07 mol/L): 49.4%
log IC50, peak hNav1.5 Na+ current inhibition (peak hNav1.5; site_platform s02_p2): no inh.
Peak hNav1.5 Na+ current inhibition, Mean (peak hNav1.5; site_platform s02_p2, 1.00E-08 mol/L): 0.5%
Peak hNav1.5 Na+ current inhibition, Mean (peak hNav1.5; site_platform s02_p2, 3.00E-07 mol/L): 5.1%
log IC50, peak hNav1.5 Na+ current inhibition (peak hNav1.5; site_platform s04_p3): no inh.
Peak hNav1.5 Na+ current inhibition, Mean (peak hNav1.5; site_platform s04_p3, 1.00E-08 mol/L): 7.9%
Peak hNav1.5 Na+ current inhibition, Mean (peak hNav1.5; site_platform s04_p3, 3.00E-07 mol/L): 13.7%
log IC50, peak hNav1.5 Na+ current inhibition (peak hNav1.5; site_platform s06_p4): no inh.
Peak hNav1.5 Na+ current inhibition, Mean (peak hNav1.5; [2]): -6.3%
Peak hNav1.5 Na+ current inhibition, Mean (peak hNav1.5; [3]): 0.9%
log IC50, peak hNav1.5 Na+ current inhibition (peak hNav1.5; site_platform s07_p6): no inh.
Peak hNav1.5 Na+ current inhibition, Mean (peak hNav1.5; [4]): -3.3%
Peak hNav1.5 Na+ current inhibition, Mean (peak hNav1.5; [5]): -0.6%
nH, Hill slope, peak hNav1.5 inhibition (peak hNav1.5; site_platform s10_p3): 0.57
Peak hNav1.5 Na+ current inhibition, Mean (peak hNav1.5; site_platform s10_p3, 1.00E-08 mol/L): 3.5%
Peak hNav1.5 Na+ current inhibition, Mean (peak hNav1.5; site_platform s10_p3, 3.00E-07 mol/L): 22.0%
IC50 (peak hNav1.5; site_platform s10_p3): 2690 nM
log IC50, peak hNav1.5 inhibition (peak hNav1.5; site_platform s11_p1): no inh.
Peak hNav1.5 Na+ current inhibition, Mean (peak hNav1.5; site_platform s11_p1, 1.00E-08 mol/L): 4.3%
Peak hNav1.5 Na+ current inhibition, Mean (peak hNav1.5; site_platform s11_p1, 3.00E-07 mol/L): 10.4%
log IC50, peak hNav1.5 inhibition (peak hNav1.5; site_platform s12_p2): no inh.
Peak hNav1.5 Na+ current inhibition, Mean (peak hNav1.5; site_platform s12_p2, 1.00E-08 mol/L): 0.0%
Peak hNav1.5 Na+ current inhibition, Mean (peak hNav1.5; site_platform s12_p2, 3.00E-07 mol/L): 0.0%
log IC50, peak hNav1.5 inhibition (peak hNav1.5; site_platform s13_p2): no inh.
Peak hNav1.5 Na+ current inhibition, Mean (peak hNav1.5; [6]): 3.2%
Peak hNav1.5 Na+ current inhibition, Mean (peak hNav1.5; [7]): 6.7%
nH, Hill slope, peak hNav1.5 inhibition (peak hNav1.5; site_platform s14_p1): 0.78
Peak hNav1.5 Na+ current inhibition, Mean (peak hNav1.5; [8]): 6.0%
Peak hNav1.5 Na+ current inhibition, Mean (peak hNav1.5; [9]): 17.8%
nH, Hill slope, peak hNav1.5 inhibition (peak hNav1.5; site_platform s15_p1): 0.68
Peak hNav1.5 Na+ current inhibition, Mean (peak hNav1.5; site_platform s15_p1, 1.00E-08 mol/L): 13.5%
Peak hNav1.5 Na+ current inhibition, Mean (peak hNav1.5; site_platform s15_p1, 3.00E-07 mol/L): 51.4%
IC50 (peak hNav1.5; site_platform s15_p1): 324 nM
nH, Hill slope, peak hNav1.5 inhibition (peak hNav1.5; site_platform s16_p3): 0.36
Peak hNav1.5 Na+ current inhibition, Mean (peak hNav1.5; site_platform s16_p3, 1.00E-08 mol/L): 8.1%
Peak hNav1.5 Na+ current inhibition, Mean (peak hNav1.5; site_platform s16_p3, 3.00E-07 mol/L): 26.6%
IC50 (peak hNav1.5; site_platform s16_p3): 4470 nM
nH, Hill slope, peak hNav1.5 inhibition (peak hNav1.5; site_platform s17_p1): 1.09
Peak hNav1.5 Na+ current inhibition, Mean (peak hNav1.5; site_platform s17_p1, 1.00E-08 mol/L): 2.7%
Peak hNav1.5 Na+ current inhibition, Mean (peak hNav1.5; site_platform s17_p1, 3.00E-07 mol/L): 30.0%
IC50 (peak hNav1.5; site_platform s17_p1): 676 nM
log IC50, peak hNav1.5 inhibition (peak hNav1.5; site_platform s18_p1): no inh.
Peak hNav1.5 Na+ current inhibition, Mean (peak hNav1.5; site_platform s18_p1, 1.00E-08 mol/L): 54.7%
Peak hNav1.5 Na+ current inhibition, Mean (peak hNav1.5; site_platform s18_p1, 3.00E-07 mol/L): 68.5%
nH, Hill slope, peak hNav1.5 inhibition (peak hNav1.5; site_platform s19_p3): 0.50
Peak hNav1.5 Na+ current inhibition, Mean (peak hNav1.5; site_platform s19_p3, 1.00E-08 mol/L): 2.2%
Peak hNav1.5 Na+ current inhibition, Mean (peak hNav1.5; site_platform s19_p3, 3.00E-07 mol/L): 17.3%
IC50 (peak hNav1.5; site_platform s19_p3): 6920 nM
nH, Hill slope, late hNav1.5 inhibition (late hNav1.5; site_platform s06_p4): 1.86
Late hNav1.5 Na+ current inhibition, Mean (late hNav1.5; [2]): -0.5%
Late hNav1.5 Na+ current inhibition, Mean (late hNav1.5; [3]): 43.7%
IC50 (late hNav1.5; site_platform s06_p4, read-out: log IC50, late hNav1.5 inhibition (converted)): 363 nM
log IC50, late hNav1.5 inhibition (late hNav1.5; site_platform s07_p6): no inh.
Late hNav1.5 Na+ current inhibition, Mean (late hNav1.5; [4]): 5.5%
Late hNav1.5 Na+ current inhibition, Mean (late hNav1.5; [5]): 12.3%
log IC50, late hNav1.5 inhibition (late hNav1.5; site_platform s13_p2): no inh.
Late hNav1.5 Na+ current inhibition, Mean (late hNav1.5; [6]): 24.3%
Late hNav1.5 Na+ current inhibition, Mean (late hNav1.5; [7]): 29.9%
log IC50, late hNav1.5 inhibition (late hNav1.5; site_platform s14_p1): no inh.
Late hNav1.5 Na+ current inhibition, Mean (late hNav1.5; [8]): 54.2%
Late hNav1.5 Na+ current inhibition, Mean (late hNav1.5; [9]): 10.2%
TdP Risk Category [1]: High
Peak hCav1.2 Ca2+ current inhibition, Mean (hCav1.2; site s01_p1, 1.00E-08 mol/L): 5.6%
Peak hCav1.2 Ca2+ current inhibition, Mean (hCav1.2; site s01_p1, 3.00E-07 mol/L): 16.7%
nH, Hill slope (hCav1.2; site s02_p2, corrected for rundown): 0.64
Peak hCav1.2 Ca2+ current inhibition, Mean (hCav1.2; site s02_p2, corrected for rundown, 1.00E-08 mol/L): 4.4%
Peak hCav1.2 Ca2+ current inhibition, Mean (hCav1.2; site s02_p2, corrected for rundown, 3.00E-07 mol/L): 34.4%
Peak hCav1.2 Ca2+ current inhibition, Mean (hCav1.2; site s04_p3, 1.00E-08 mol/L): 12.6%
Peak hCav1.2 Ca2+ current inhibition, Mean (hCav1.2; site s04_p3, 3.00E-07 mol/L): 17.5%
Peak hCav1.2 Ca2+ current inhibition, Mean (hCav1.2; site s06_p4, 1.00E-08 mol/L): 5.9%
Peak hCav1.2 Ca2+ current inhibition, Mean (hCav1.2; site s06_p4, 3.00E-07 mol/L): 13.9%
Peak hCav1.2 Ca2+ current inhibition, Mean (hCav1.2; site s11_p1, 1.00E-08 mol/L): 13.2%
Peak hCav1.2 Ca2+ current inhibition, Mean (hCav1.2; site s11_p1, 3.00E-07 mol/L): 21.4%
Peak hCav1.2 Ca2+ current inhibition, Mean (hCav1.2; site s14_p1, 1.00E-08 mol/L): -0.1%
Peak hCav1.2 Ca2+ current inhibition, Mean (hCav1.2; site s14_p1, 3.00E-07 mol/L): 8.2%
nH, Hill slope (hCav1.2; site s16_p3): 0.51
Peak hCav1.2 Ca2+ current inhibition, Mean (hCav1.2; site s16_p3, 1.00E-08 mol/L): 8.6%
Peak hCav1.2 Ca2+ current inhibition, Mean (hCav1.2; site s16_p3, 3.00E-07 mol/L): 45.8%
Peak hCav1.2 Ca2+ current inhibition, Mean (hCav1.2; site s18_p1, 1.00E-08 mol/L): 28.2%
Peak hCav1.2 Ca2+ current inhibition, Mean (hCav1.2; site s18_p1, 3.00E-07 mol/L): 31.3%
inhibition at 1e-08 mol/L (hERG; site_platform s07_p5): 0.5%
inhibition at 4 min, 1e-08 mol/L (hERG; site_platform s10_p3): 1.5%
inhibition at 7 min, 1e-08 mol/L (hERG; site_platform s11_p1): 12%
inhibition at 7 min, 1e-08 mol/L (hERG; site_platform s14_p1): 41.9%
